Laboratory results published in patent US20150196033A1, “PESTICIDAL COMPOSITIONS AND PROCESSES RELATED THERETO” (priority 2012, published 2015).
Read-outs that look alike come from different tables or passages of the source.

Assays:
[1] = tested on: Corn Earworm (CEW) (Helicoverpa zea); experiment: Bioassay on Corn Earworm (CEW), 128-well diet tray assay; type: in vivo; conditions: for mortality at 0.5 µg/cm2 / mortality at 50 µg/cm2: Helicoverpa zea, 168 h; for mortality at 0.5 µg/cm2: 0.5 μg/cm2 on artificial diet, read-out: Rating CEW (% Control (or Mortality)), *Tested at 0.5 μg/cm2; for mortality at 50 µg/cm2: read-out: Rating CEW (% Control (or Mortality))
Experimental: (§1) Certain molecules disclosed in this document were tested against BAW and CEW using procedures described in the following examples. In the reporting of the results, the “BAW & CEW Rating Table” was used (See Table Section).
Bioassays on CEW (Helicoverpa zea)
(§2) Trays were covered with a clear self-adhesive cover and held at 25° C., 14:10 light-dark for five to seven days. Percent mortality was recorded for the larvae in each well; activity in the eight wells was then averaged. The results are indicated in the table entitled “Table ABC: Biological Results” (See Table Section).

[2] = tested on: Beet Armyworm (BAW) (Spodoptera exigua); experiment: Bioassay on Beet Armyworm (BAW), 128-well diet tray assay; type: in vivo; conditions: for mortality at 50 µg/cm2: read-out: Rating BAW (% Control (or Mortality))
Experimental: as §1
Bioassays on BAW (Spodoptera exigua)
as §2

[3] = second instar larvae, five to seven days
[4] = Spodoptera exigua, 168 h, 50 μg/cm2 on artificial diet, second instar larvae, five to seven days
[5] = 50 μg/cm2 on artificial diet, second instar larvae, five to seven days

| SMILES | mortality at 0.5 µg/cm2 [1, 3] | mortality at 50 µg/cm2 [2, 4] | mortality at 50 µg/cm2 [1, 5] | other results |
| --- | --- | --- | --- | --- |
| CC(C)c1cc(F)ccc1N/C(S)=N/C(=O)Nc1ccc(-c2ncn(-c3ccc(OC(F)(F)F)cc3)n2)cc1 [Molecule A116] | 50 to 100% | 50 to 100% | – | – |
| Cc1cccc(Cl)c1N1C(=O)CS/C1=N\C(=O)Nc1ccc(-c2ncn(-c3ccc(OC(F)(F)F)cc3)n2)cc1 [Molecule A74] | 50 to 100% | 50 to 100% | – | – |
| COc1ccc(N/C(=N\C(=O)Nc2ccc(-c3ncn(-c4ccc(OC(F)(F)F)cc4)n3)cc2)SCOC(=O)C(C)C)c(C)c1 [Molecule A56] | – | 50 to 100% | 50 to 100% | – |
| Cc1ccc(Cl)cc1N1C(=O)CS/C1=N\C(=O)Nc1ccc(-c2ncn(-c3ccc(OC(F)(F)F)cc3)n2)cc1 [Molecule A76] | 50 to 100% | 50 to 100% | – | – |
| CC(C)c1ccccc1N/C(S)=N/C(=O)Nc1ccc(-c2ncn(-c3ccc(C(F)(F)C(F)(F)C(F)(F)F)cc3)n2)cc1 [Molecule A113] | – | – | – | mortality at 50 µg/cm2 [1]: 0%; mortality at 50 µg/cm2 ([2]; Spodoptera exigua, 168 h): 50 to 100% |
| CC(C)n1nccc1N/C(S)=N/C(=O)Nc1ccc(-c2ncn(-c3ccc(OC(F)(F)F)cc3)n2)cc1 [Molecule A119] | 0 to 50% | 50 to 100% | – | – |
| CC(C)c1ccccc1N/C(S)=N/C(=O)Nc1ccc(-c2ncn(-c3ccc(OC(F)(F)F)cc3)n2)cc1 [Molecule A48] | – | 50 to 100% | 50 to 100% | – |
| Cc1cc(C)c(-n2c(C)cs/c2=N\C(=O)Nc2ccc(-c3ncn(-c4ccc(OC(F)(F)F)cc4)n3)cc2)c(C)c1 [Molecule A43, (Z)-1-(3-mesityl-4-methylthiazol-2(3H)-ylidene)-3-(4-(1-(4-(trifluoromethoxy)phenyl)-1H-1,2,4-triazol-3-yl)phenyl)urea] | – | 0% | 50 to 100% | – |
| O=C(/N=C1\SCC(=O)N1c1ccccc1C(F)(F)F)Nc1ccc(-c2ncn(-c3ccc(OC(F)(F)F)cc3)n2)cc1 [Molecule A128] | 50 to 100% | – | – | mortality at 0.5 µg/cm2 ([2]; Spodoptera exigua, 168 h, 0.5 μg/cm2 on artificial diet, second instar larvae, five to seven days, read-out: Rating BAW (% Control (or Mortality)), *Tested at 0.5 μg/cm2): 50 to 100% |
| O=C(/N=C1\SCC(=O)N1c1ccccc1C1CC1)Nc1ccc(-c2ncn(-c3ccc(OC(F)(F)F)cc3)n2)cc1 [Molecule A66] | – | 50 to 100% | – | – |
| Cc1c(F)cccc1N/C(S)=N/C(=O)Nc1ccc(-c2ncn(-c3ccc(OC(F)(F)F)cc3)n2)cc1 [Molecule A79] | 50 to 100% | 50 to 100% | – | – |
| Cc1cccc(C)c1N1CC(C)CS/C1=N\C(=O)Nc1ccc(-c2ncn(-c3ccc(OC(F)(F)F)cc3)n2)cc1 (centres unmarked) [Molecule A39] | – | 50 to 100% | 50 to 100% | – |
| CC(C)n1nccc1N1C(=O)CS/C1=N\C(=O)Nc1ccc(-c2ncn(-c3ccc(OC(F)(F)F)cc3)n2)cc1 [Molecule A121] | 50 to 100% | 50 to 100% | – | – |
| CC(C)C(=O)OCS/C(=N/C(=O)Nc1ccc(-c2ncn(-c3ccc(OC(F)(F)F)cc3)n2)cc1)Nc1c(F)cccc1F [Molecule A61] | – | 50 to 100% | 50 to 100% | – |
| Cc1ccccc1N/C(=N\C(=O)Nc1ccc(-c2ncn(-c3ccc(OC(F)(F)F)cc3)n2)cc1)SCOC(=O)C(C)C [Molecule A60] | – | 50 to 100% | 50 to 100% | – |
| CC(C)c1ccccc1N1C(=O)CS/C1=C(/C#N)C(=O)Nc1ccc(-c2ncn(-c3ccc(OC(F)(F)F)cc3)n2)cc1 [Molecule A31, (Z)-2-Cyano-2-(3-(2-isopropylphenyl)-4-oxothiazolidin-2-ylidene)-N-(4-(1-(4-(trifluoromethoxy)phenyl)-1H-1,2,4-triazol-3-yl)phenyl)acetamide] | – | 50 to 100% | 50 to 100% | – |
| COc1ccc(N/C(=N/C(=O)Nc2ccc(-c3ncn(-c4ccc(OC(F)(F)F)cc4)n3)cc2)SCS[C@@H]2O[C@@H](C)[C@H](OC)[C@@H](OC)[C@H]2OC)c(C)c1 [Molecule A10, (Z)-(((2S,3R,4R,5S,6S)-3,4,5-Trimethoxy-6-methyltetrahydro-2H-pyran-2-yl)thio)methyl N-(4-methoxy-2-methylphenyl)-N′-((4-(1-(4-(trifluoromethoxy)phenyl)-1H-1,2,4-triazol-3-yl)phenyl)carbamoyl) carbamimidothioate] | – | 50 to 100% | 50 to 100% | – |
| CC(C)C(=O)OCS/C(=N\C(=O)Nc1ccc(-c2ncn(-c3ccc(OC(F)(F)F)cc3)n2)cc1)Nc1ccccc1C(C)C [Molecule A5, (Z)-((N-(2-Isopropylphenyl)-N′-((4-(1-(4-(trifluoromethoxy)phenyl)-1H-1,2,4-triazol-3-yl)phenyl)carbamoyl)carbamimidoyl)thio)methyl isobutyrate] | – | 50 to 100% | 50 to 100% | – |
| CC(C)c1ccccc1N/C(S)=N/C(=O)Nc1ccc(-c2ncn(-c3ccc(OC(F)(F)C(F)(F)F)cc3)n2)cc1 [Molecule A112] | – | 50 to 100% | – | – |

| SMILES | mortality at 0.5 µg/cm2 [1, 3] | mortality at 50 µg/cm2 [2, 4] | mortality at 50 µg/cm2 [1, 5] | other results |
| --- | --- | --- | --- | --- |
| CC(C)c1ccccc1N/C(S)=C(\C#N)C(=O)Nc1ccc(-c2ncn(-c3ccc(OC(F)(F)F)cc3)n2)cc1 [Molecule A25, (Z)-2-cyano-3-((2-isopropylphenyl)amino)-3-mercapto-N-(4-(1-(4-(trifluoromethoxy)phenyl)-1H-1,2,4-triazol-3-yl)phenyl)acrylamide] | – | 0% | 0 to 50% | – |
| N#C/C(C(=O)Nc1ccc(-c2ncn(-c3ccc(OC(F)(F)F)cc3)n2)cc1)=C(/S)Nc1c(F)cccc1F [Molecule A30, (Z)-2-Cyano-3-((2,6-difluorophenyl)amino)-3-mercapto-N-(4-(1-(4-(trifluoromethoxy)phenyl)-1H-1,2,4-triazol-3-yl)phenyl)acrylamide] | – | 0% | 0% | – |
| Cc1ccc(F)c(N2C(=O)CS/C2=N\C(=O)Nc2ccc(-c3ncn(-c4ccc(OC(F)(F)F)cc4)n3)cc2)c1 [Molecule A94] | 50 to 100% | 50 to 100% | – | – |
| CCC(C)c1ccccc1N/C(=N\C(=O)Nc1ccc(-c2ncn(-c3ccc(OC(F)(F)F)cc3)n2)cc1)SCOC(=O)C(C)C (centres unmarked) [Molecule A54] | – | 50 to 100% | 50 to 100% | – |
| Cc1cccc(Cl)c1N/C(S)=N/C(=O)Nc1ccc(-c2ncn(-c3ccc(OC(F)(F)F)cc3)n2)cc1 [Molecule A70] | 50 to 100% | 50 to 100% | – | – |
| Cc1cccc(C)c1-n1c(C)cs/c1=N\C(=O)Nc1ccc(-c2ncn(-c3ccc(OC(F)(F)F)cc3)n2)cc1 [Molecule A42] | – | 0 to 50% | 0% | – |
| CC(C)c1ccccc1N1C(=O)CS/C1=N\C(=O)Nc1ccc(-c2nnc(-c3ccc(OC(F)(F)C(F)(F)F)cc3)o2)cc1 [Molecule A102, (Z)-1-(3-(2-isopropylphenyl)-4-oxothiazolidin-2-ylidene)-3-(4-(5-(4-(perfluoroethoxy)phenyl)-1,3,4-oxadiazol-2-yl)phenyl)urea] | 50 to 100% | – | – | – |
| Cc1cc(C)c(N/C(=N\C(=O)Nc2ccc(-c3ncn(-c4ccc(OC(F)(F)F)cc4)n3)cc2)SCOC(=O)C(C)C)c(C)c1 [Molecule A59] | – | 50 to 100% | 50 to 100% | – |
| Cc1cccc(N/C(S)=N/C(=O)Nc2ccc(-c3ncn(-c4ccc(OC(F)(F)F)cc4)n3)cc2)c1C [Molecule A71] | – | 50 to 100% | – | – |
| COc1ccc(NC(=O)NC(=O)Nc2ccc(-c3ncn(-c4ccc(C(F)(F)F)cc4)n3)cc2)c(C)c1 [Molecule A53] | – | – | – | Rating CEW (% Control (or Mortality)) [1, 5]: D (No activity noticed in this bioassay); Rating BAW (% Control (or Mortality)) [2, 5]: D (No activity noticed in this bioassay) |
| CCc1cccc(C)c1N/C(S)=N/C(=O)Nc1ccc(-c2ncn(-c3ccc(OC(F)(F)F)cc3)n2)cc1 [Molecule A97] | 50 to 100% | 50 to 100% | – | – |
| O=C(/N=C1\SCC(=O)N1c1ccccc1Cc1ccccc1)Nc1ccc(-c2ncn(-c3ccc(OC(F)(F)F)cc3)n2)cc1 [Molecule A105] | 50 to 100% | 50 to 100% | – | – |
| O=C(/N=C(\S)Nc1ccccc1C(F)(F)F)Nc1ccc(-c2ncn(-c3ccc(OC(F)(F)F)cc3)n2)cc1 [Molecule A127] | – | 50 to 100% | 0% | – |
| COc1ccc(N/C(S)=C(\C#N)C(=O)Nc2ccc(-c3ncn(-c4ccc(OC(F)(F)F)cc4)n3)cc2)c(C)c1 [Molecule A26, (Z)-2-Cyano-3-mercapto-3-((4-methoxy-2-methylphenyl)amino)-N-(4-(1-(4-(trifluoromethoxy)phenyl)-1H-1,2,4-triazol-3-yl)phenyl)acrylamide] | – | 0% | 0% | – |
| CC(C)c1ccccc1N1C(=O)CS/C1=N\C(=O)Nc1ccc(-c2ncn(-c3ccc(OC(F)(F)C(F)(F)F)cc3)n2)cc1 [Molecule A115] | 50 to 100% | 50 to 100% | – | – |
| O=C(/N=C(\S)Nc1ccc(Cl)cc1Cl)Nc1ccc(-c2ncn(-c3ccc(OC(F)(F)F)cc3)n2)cc1 [Molecule A78] | – | 0% | – | – |
| Cc1ccc(C(C)C)c(N/C(S)=N/C(=O)Nc2ccc(-c3ncn(-c4ccc(OC(F)(F)F)cc4)n3)cc2)c1 [Molecule A83] | – | 50 to 100% | – | – |
| CC(C)(C)c1ccccc1N1C(=O)CS/C1=N\C(=O)Nc1ccc(-c2ncn(-c3ccc(OC(F)(F)F)cc3)n2)cc1 [Molecule A95] | 50 to 100% | – | – | – |
| COc1ccc(Cl)cc1N/C(S)=N/C(=O)Nc1ccc(-c2ncn(-c3ccc(OC(F)(F)F)cc3)n2)cc1 [Molecule A99] | – | 0% | – | – |
